The values that follow come from patent US11312718B2, “Formulations of (S)-3-(1-(9H-purin-6-ylamino)ethyl)-8-chloro-2-phenylisoquinolin-1(2H)-one” (Infinity Pharmaceuticals, Inc., priority 2011, dated 2022).

Data set [1] is described as follows: Salt screen: solubility in water. The format is physicochemical. From the text: Salts of a compound of Formula (I) were formed with L-tartaric acid, p-toluenesulfonic acid, D-glucaronic acid, ethane-1,2-disulfonic acid (EDSA), 2-naphthalenesulfonic acid (NSA), hydrochloric acid (HCl) (mono and bis), hydrobromic acid (HBr), citric acid, naphthalene-1,5-disulfonic acid (NDSA), DL-mandelic acid, fumaric acid, sulfuric acid, maleic acid, methanesulfonic acid (MSA), benzenesulfonic acid (BSA), ethanesulfonic acid (ESA), L-malic acid, phosphoric acid, and aminoethanesulfonic acid (taurine).

Data set [2] can be described thus: Dynamic vapor sorption (DVS) / moisture sorption analysis. It is filed as physicochemical. The note with it: for hygroscopicity / moisture uptake at 60% RH / moisture uptake at 90% RH: DVS; for moisture uptake at 60% RH / moisture uptake at 90% RH: about 25° C. The method, then: Compounds and polymorphs provided herein can be characterized by moisture sorption analysis. This analysis was performed using a Hiden IGAsorp Moisture Sorption instrument. Moisture sorption experiments were carried out at about 25° C. by performing an adsorption scan from about 40% to about 90% RH in steps of about 10% RH and a desorption scan from about […] to about 0% RH in steps of about −10% RH. A second adsorption scan from about 10% to about 40% RH was performed to determine the moisture uptake from a drying state to the starting humidity. Samples were allowed to equilibrate for about four hours at each point or until an asymptotic weight was reached. After the isothermal sorption scan, samples were dried for about one hour at elevated temperature (about 60° C.) to obtain the dry weight. XRPD analysis on the material following moisture sorption was performed to determine the solid form.
Dynamic vapor sorption (DVS) analysis was performed on polymorph Forms A, B, C, D, and E using the DVS instrument and parameters as described above. […] Hysteresis indicative of hemi-hydrate formation was observed.

A short description of data set [3]: Thermal stability (60° C.). To be noted: for Thermal stability (60° C.): after 1 week; for polymorph Form changes by XRPD: held at 60° C. for 10 days.
Protocol: Forms A, B, C, D, and E were held at 60° C. for 10 days followed by analysis by XRPD. In each case, 8 mL vials were charged with approximately 20 mg of material, with the exception of Form B for which 10 mg of material was charged. Samples equilibrated in an oven for 10 days.
Data set [4] is described as follows: Grinding stability (mortar and pestle). It is filed as physicochemical. To be noted: for Grinding (mortar & pestle): by hand, 2 and 5 min, XRPD. As for the experimental part:
Forms A, C, D, and E were subjected to grinding experiments performed using a mortar and pestle by hand. Samples were lightly grounded for 2 minutes then analyzed by XRPD. Material was then returned to the mortar and pestle and grounded for an additional 3 minutes, for a total of 5 minutes of grinding, and re-analyzed by XRPD.

A short description of data set [5]: Pharmacokinetics, single oral dose. The note with it: both sexes, human, plasma, healthy adult subjects, fasting, range over doses. The format is in vivo. As for the experimental part: A randomized, double-blind, placebo-controlled, single and repeat dose study was conducted to evaluate the pharmacokinetics (PK) of a compound of Formula (I) Form C polymorph when orally administered to healthy adult male and female subjects. Subjects received a single oral dose of a compound of Formula (I) Form C polymorph under fasting conditions at a dose of 1 mg, 2 mg, 5 mg, 10 mg, 20 mg, and 30 mg. Blood samples were collected for plasma analysis pre-dose, and at 0.5, 1, 1.5, 2, 3, 4, 6, 9, 12, 16, and 24 hours.

Data set [6] in a line: Stability of the capsules in a container closure. It is filed as physicochemical. The method, then: The stability of the capsules in a container closure was evaluated at long-term and accelerated conditions. Container closure conditions used were (i) 60-cc high density polyethylene (HDPE), wide mouth, round, white bottle; and (ii) child resistant 33-mm white plastic cap with a heat induction foil inner seal liner. The containers containing the capsules were subjected to the following conditions: (1) −20° C.±5° C.; (2) 5° C.±3° C.; (3) 25° C.±2° C., 60% RH±5% RH; (4) 40° C.±2° C., 75% RH±5% RH; (5) 25° C.±2° C., 60% RH±5% RH, open bottle; (6) 40° C.±2° C., 75% RH±5% RH, open bottle; and (7) 30° C.±2° C., 65% RH±5% RH. Samples of the capsule formulations were analyzed at certain time intervals. The API remained stable at 25° C.±2° C., 60% RH±5% RH and 40° C. 2° C., […]±5% RH for at least 6 months. The API remained stable for at least 6 month at −20° C. 5° C., 5° C. 3° C. when stored in induction-sealed HDPE bottles. The API was stable for at least 6 months at 25° C.±2° C., 60% RH±5% RH and 40° C.±2° C., 75% RH±5% RH in open HDPE bottles.

Data set [7] in a line: Solubility of polymorph Forms (H2O, SGF). The format is physicochemical.
Data set [8] can be described thus: Pharmacokinetics, repeat oral dose. It is filed as in vivo. To be noted: both sexes, human, plasma; Day 14; repeat oral dosing 1, 2, 5, 10 mg (QD Days 1 and 14, BID Days 2 through 13); range over doses. As for the experimental part: Repeat oral dose administration of a compound of Formula (I) Form C polymorph was administered once per day (QD) in the morning on Days 1 and 14 and twice daily (BID) on Days 2 through 13. Administration of the compound occurred after an overnight fast on Days 1 and 14. Blood samples were collected for plasma analysis on Day 14 following 1, 2, 5 and 10 mg repeat dosing. Blood samples were collected on Day 14 prior to dosing and at 0.5, 1, 1.5, 2, 3, 4, 6, 9, 12, 16 and 24 hours after administration to determine plasma concentrations of the compound of Formula (I) Form C polymorph. Doses of 1 mg, 2 mg, 5 mg, and 10 mg gave a Cmax value range of greater than 10 ng/mL to less than 1,000 ng/mL in a dose dependent manner. In addition doses of 1 mg, 2 mg, 5 mg, and 10 mg gave an AUCtau,ss value range of greater than 100 ng*h/mL to less than 2,500 ng*h/mL, in a dose dependent manner. For the BID regimens, the AUC over a 24 hour interval was obtained by multiplying AUCtau,ss by 2.

Data set [9] in a line: Hold in humidity chambers at 9% RH and 95% RH. The format is physicochemical. The note with it: after 1 week.
Data set [10] can be described thus: Stability studies of packaged polymorph Forms (temperature and humidity storage). It is filed as physicochemical. The note with it: LDPE bags, foil or Mylar bag, HDPE drum; 5° C./60% RH, 25° C./60% RH, 40° C./75% RH; up to 9 months; HPLC, Karl Fischer, XRPD. The source says: Polymorphs Form A and Form C were subjected to stability studies where several samples of each given Form were packaged and subjected to the given temperature and humidity conditions as described in Table 10. At each timepoint, a sample for that study was opened and evaluated by HPLC for purity, Karl Fischer for moisture content, and XRPD for confirming the polymorph Form.

The conditions of data set [11]: human plasma, 37° C., 5 μM; cited from earlier work.

Counter-ions that a name gives are not always drawn.

`C[C@H](Nc1ncnc2[nH]cnc12)c1cc2cccc(Cl)c2c(=O)n1-c1ccccc1` [Bis HCL]: the “Solubility in water” value in data set [1] is 11800 µg/mL. Further, the figures for the “Moisture Sorption (wt % water)” value in [2] (60% RH) and in data set [2] (90% RH) were 60% RH: 9.9 wt % water and 90% RH: 12.3 wt % water, respectively.
With `C[C@H](Nc1ncnc2[nH]cnc12)c1cc2cccc(Cl)c2c(=O)n1-c1ccccc1` [Form D, (S)-3-(1-(9H-purin-6-ylamino)ethyl)-8-chloro-2-phenylisoquinolin-1(2H)-one], in data set [3], the “Thermal stability (60° C.)” value was “stable after 1”. For the same compound, the “polymorph Form changes by XRPD” value in [3] is on record as “No polymorph Form changes were observed”. In addition, in [4], the “Grinding (mortar & pestle)” value is on record as “amorphous”. Besides, the figures for the DVS in [2] (@ 60% RH) and in [2] (@ 90% RH) were 0.4% @ 60% RH and 1.7% @ 90% RH, respectively. In data set [2], the hygroscopicity entry was “slightly hygroscopic”. Moreover, in [2] (60% RH), the “moisture uptake at 60% RH” value amounted to 0.4 wt %. Also, the “moisture uptake at 90% RH” value in data set [2] (90% RH) came out at 1.7 wt %.
In the case of `C[C@H](Nc1ncnc2[nH]cnc12)c1cc2cccc(Cl)c2c(=O)n1-c1ccccc1` [Form C, (S)-3-(1-(9H-purin-6-ylamino)ethyl)-8-chloro-2-phenylisoquinolin-1(2H)-one], the Cmax in [5] (single oral dose 1, 2, 5, 10, 20, 30 mg) was in the range of 10 to 1500 ng/mL. Moreover, in data set [5] (single oral dose 1 to 30 mg), the half-life was in the range of 3 to 10 h. Also, in [5] (single oral dose 1 to 30 mg, read-out: AUC0-24), the AUC(0-t) lay in the range of 100 to 4000 ng·h/mL. In addition, the “time the API remained stable” value in data set [6] (capsules in HDPE bottle, 25° C.±2° C., 60% RH±5% RH and 40° C. 2° C., 45% RH±5% RH) is on record as “at least 6 months”; in [6] (capsules, −20° C. 5° C., 5° C. 3° C., induction-sealed HDPE bottles), “at least 6 month”. Moreover, in [6] (capsules, 25° C.±2° C., 60% RH±5% RH and 40° C.±2° C., 75% RH±5% RH, open HDPE bottles), the “time the API was stable” value is “at least 6 months”. Moreover, the “Thermal stability (60° C.)” value in data set [3] was “stable after 1”. In data set [3], the “polymorph Form changes by XRPD” value is listed as “No polymorph Form changes were observed”. In data set [4] (after both 2 and 5 minutes of grinding by hand), the “Form by XRPD after grinding” value is listed as “remain consistent”. In addition, the “Grinding (mortar & pestle)” value in data set [4] is given as “remained Form”. Further, the “Solubility (mg/mL)” value is given as 0.001 (H2O) mg/mL in data set [7] (H2O) and 9.133 (SGF) mg/mL in [7] (SGF). The AUC in [8] lay in the range of 100 to 2500 ng·h/mL. In [8], this compound displayed a Cmax at 14 days of 10 to 1000 ng/mL. Besides, the “changes in Form” value in [9] was “no changes in Form”. In addition, the values for the DVS in [2] (@ 60% RH) and in data set [2] (@ 90% RH) were 4.2% @ 60% RH and 4.9% @ 90% RH, respectively. In [2], the hygroscopicity result is reported as “moderately hygroscopic”. Also, the “moisture uptake at 60% RH” value in data set [2] (60% RH) is on record as 4.2%. Moreover, the “moisture uptake at 90% RH” value in data set [2] (90% RH) came to 4.9%. The “instability of the polymorphic Form” value in data set [10] is reported as “no indication of instability of the polymorphic Form”.
On to `C[C@H](Nc1ncnc2[nH]cnc12)c1cc2cccc(Cl)c2c(=O)n1-c1ccccc1` [NDSA], for which, in data set [1], the “Solubility in water” value worked out at 300 µg/mL.
Regarding `CCCOc1cc(N)ccc1C(=O)OCCN(CC)CC` [propoxycaine], in data set [11], the plasma stability entry is given as “low plasma stability”.
`C[C@H](Nc1ncnc2[nH]cnc12)c1cc2cccc(Cl)c2c(=O)n1-c1ccccc1` [Form B, (S)-3-(1-(9H-purin-6-ylamino)ethyl)-8-chloro-2-phenylisoquinolin-1(2H)-one]: the “Thermal stability (60° C.)” value in data set [3] was “stable after 1”. Further, the “polymorph Form changes by XRPD” value in data set [3] is “No polymorph Form changes were observed”. The DVS in [2] (@ 60% RH) turned out to be 1.0% @ 60% RH; in [2] (@ 90% RH), 1.7% @ 90% RH. Moreover, in data set [2], the hygroscopicity result is given as “slightly hygroscopic”. Besides, the “moisture uptake at 60% RH” value in data set [2] (60% RH) was determined as 1.0 wt %. Moreover, the “moisture uptake at 90% RH” value in data set [2] (90% RH) stood at 1.7 wt %.
`C[C@H](Nc1ncnc2[nH]cnc12)c1cc2cccc(Cl)c2c(=O)n1-c1ccccc1` [NSA]: the “Solubility in water” value in data set [1] was 50 µg/mL. For the same compound, the “Moisture Sorption (wt % water)” value is given as 60% RH: 0.3 wt % water in data set [2] (60% RH) and 90% RH: 0.7 wt % water in data set [2] (90% RH).
Consider `CC(C)[N+](C)(CCOC(=O)C1c2ccccc2Oc2ccccc21)C(C)C` [propantheline], for which, in [11], the plasma stability entry is listed as “intermediate plasma stability”.
In the case of `C[C@H](Nc1ncnc2[nH]cnc12)c1cc2cccc(Cl)c2c(=O)n1-c1ccccc1` [EDSA], in data set [1], the “Solubility in water” value was determined as 9400 µg/mL. The results for the “Moisture Sorption (wt % water)” value in [2] (60% RH) and in [2] (90% RH) were 60% RH: 7.5 wt % water and 90% RH: 28.1 wt % water, respectively.

Broadly, the Cmax is the maximum level reached in the sampled fluid or tissue. One may read the half-life as the time needed for the level to fall by half in the phase considered. Higher therefore signals slow loss. A word on the AUC: it is concentration integrated over time.
